Active and inactive are the calls of the source. The rule behind the calls is not given here.
Columns and labels:
[1] = Toxicity in mouse administered as single injection via caudal vein; conditions: in vivo, route iv
[2] = Therapeutic index, ratio of LD50 for toxicity in mouse to ED50 for anesthetic activity in mouse; format: organism-based; conditions: in vivo, read-out: Ratio LD50/ED50
[3] = Lipophilicity, log D of the compound; format: physicochemical; conditions: octanol/water
[4] = test system: Mus musculus; experiment: Anesthetic activity in mouse assessed as loss of righting […] administered as single injection via caudal vein; format: functional; conditions: route iv
[5] = Cardiotoxicity in iv dosed rat assessed as change in CK-MB level administered continuously; format: toxicity, organism-based; conditions: in vivo
[6] = Nephrotoxicity in iv dosed rat assessed as morphological change in kidney administered continuously; format: toxicity, organism-based; conditions: in vivo
[7] = test system: Mus musculus; experiment: Anesthetic activity in mouse assessed as reduction in recovery time of righting reflex at 1.5 times ED50, iv; format: functional, organism-based
[8] = Therapeutic index, ratio of LD50 for toxicity in iv dosed rat to ED50 for anesthetic activity in iv dosed rat; format: organism-based; conditions: in vivo, read-out: Ratio LD50/ED50
[9] = test system: HEK293; experiment: Reversible inhibition of human NR2B receptor expressed in HEK293 cells assessed as inhibition of L-glutamate-induced open-phase current at 500 uM in presence of glycine by whole-cell patch-clamp method relative to control; format: cell-based
[10] = Hepatotoxicity in iv dosed rat assessed as morphological change in liver administered continuously; format: toxicity, organism-based; conditions: in vivo
[11] = Cardiotoxicity in iv dosed rat assessed as change in LDH level administered continuously; format: toxicity, organism-based; conditions: in vivo
[12] = Nephrotoxicity in iv dosed rat assessed as change in urea level administered continuously; format: toxicity, organism-based; conditions: in vivo
[13] = Hepatotoxicity in iv dosed rat assessed as change in AST level administered continuously; format: toxicity, organism-based; conditions: in vivo
[14] = test system: Rattus norvegicus; experiment: Anesthetic activity in iv dosed rat assessed as loss of righting […] administered continuously; format: functional
[15] = Cardiotoxicity in iv dosed rat assessed as change in alpha-HBDH level administered continuously; format: toxicity, organism-based; conditions: in vivo
[16] = molecular target: Voltage-gated inwardly rectifying potassium channel KCNH2 (Homo sapiens, UniProt Q12809); experiment: Inhibition of human ERG
Sequence of Voltage-gated inwardly rectifying potassium channel KCNH2 (Q12809 whole entry): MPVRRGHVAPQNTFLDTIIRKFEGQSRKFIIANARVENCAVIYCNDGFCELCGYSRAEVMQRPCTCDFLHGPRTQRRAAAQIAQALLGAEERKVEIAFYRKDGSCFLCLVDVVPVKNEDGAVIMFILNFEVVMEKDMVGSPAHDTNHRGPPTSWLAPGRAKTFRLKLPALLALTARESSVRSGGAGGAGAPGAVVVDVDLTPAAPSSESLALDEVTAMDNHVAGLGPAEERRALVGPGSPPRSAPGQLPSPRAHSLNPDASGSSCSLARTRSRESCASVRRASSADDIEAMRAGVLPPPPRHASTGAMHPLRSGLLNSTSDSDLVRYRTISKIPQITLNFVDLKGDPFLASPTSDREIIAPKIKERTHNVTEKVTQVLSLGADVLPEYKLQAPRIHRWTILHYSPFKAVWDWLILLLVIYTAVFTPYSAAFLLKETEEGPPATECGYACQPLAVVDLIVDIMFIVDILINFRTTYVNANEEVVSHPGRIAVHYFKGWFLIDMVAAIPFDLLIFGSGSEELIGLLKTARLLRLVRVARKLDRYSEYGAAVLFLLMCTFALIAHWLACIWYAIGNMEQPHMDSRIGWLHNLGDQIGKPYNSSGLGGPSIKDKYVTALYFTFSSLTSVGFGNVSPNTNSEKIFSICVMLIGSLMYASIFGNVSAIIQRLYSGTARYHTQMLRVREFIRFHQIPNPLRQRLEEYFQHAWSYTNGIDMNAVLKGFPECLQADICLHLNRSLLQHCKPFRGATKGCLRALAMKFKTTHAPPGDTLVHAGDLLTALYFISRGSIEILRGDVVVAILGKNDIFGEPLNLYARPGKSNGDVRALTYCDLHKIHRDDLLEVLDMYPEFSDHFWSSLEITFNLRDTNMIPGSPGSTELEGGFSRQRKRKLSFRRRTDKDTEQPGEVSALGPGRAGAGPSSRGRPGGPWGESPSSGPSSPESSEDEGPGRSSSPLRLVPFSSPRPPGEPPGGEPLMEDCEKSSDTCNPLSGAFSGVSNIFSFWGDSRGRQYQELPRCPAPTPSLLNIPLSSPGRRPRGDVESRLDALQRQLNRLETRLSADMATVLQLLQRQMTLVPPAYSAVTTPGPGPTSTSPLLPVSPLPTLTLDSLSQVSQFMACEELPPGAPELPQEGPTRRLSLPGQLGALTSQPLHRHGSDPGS

[17] = Stability in human liver microsomes measured within 60 mins; format: ADME, Microsome; conditions: 1 h
[18] = Nephrotoxicity in iv dosed rat assessed as change in creatinine level administered continuously; format: toxicity, organism-based; conditions: in vivo
[19] = Cardiotoxicity in iv dosed rat assessed as morphological change in heart administered continuously; format: toxicity, organism-based; conditions: in vivo
[20] = Toxicity in iv dosed rat administered continuously; format: organism-based; conditions: in vivo
[21] = Toxicity in iv dosed rat assessed as body weight loss administered continuously as infusion for 2 weeks; format: organism-based; conditions: in vivo, 336 h
[22] = Stability in plasma (unknown origin); format: ADME, cell-free; conditions: unidentified
[23] = Toxicity in mouse assessed as adverse effect at 1.5 times ED50, iv; conditions: in vivo
[24] = Hepatotoxicity in iv dosed rat assessed as change in ALT level administered continuously; format: toxicity, organism-based; conditions: in vivo
[25] = Toxicity in mouse assessed as muscular rigidity at 1.5 times ED50, iv; conditions: in vivo
[26] = Solubility of the compound at pH 2; format: physicochemical; conditions: buffer
[27] = Toxicity in iv dosed rat assessed as cyanosis administered continuously; format: organism-based; conditions: in vivo
[28] = Toxicity in iv dosed rat assessed as muscle fibrillation administered continuously; format: organism-based; conditions: in vivo
[29] = Toxicity in iv dosed rat assessed as irregular respiratory rhythm administered continuously; format: organism-based; conditions: in vivo
[30] = Toxicity in iv dosed rat assessed as convulsion administered continuously; format: organism-based; conditions: in vivo
[31] = Toxicity in iv dosed rat assessed as muscular rigidity administered continuously; format: organism-based; conditions: in vivo
[32] = Toxicity in mouse assessed as ankylosis at 1.5 times ED50, iv; conditions: in vivo
[33] = Toxicity in mouse assessed as angular tension at 1.5 times ED50, iv; conditions: in vivo
[34] = Toxicity in mouse assessed as convulsion at 1.5 times ED50, iv; conditions: in vivo
[35] = Toxicity in mouse assessed as severe respiratory suppression at 1.5 times ED50, iv; conditions: in vivo

SMILES	LD50 [1] [mg/kg]	selectivity ratio [2]	logD [3]	ED50 [4] [mg/kg]	also measured
COCCN(CCOC)CCOC(=O)c1ccc(N)cc1	104	1.89	0.83	55.2	
CCN(CCOC)CCOC(=O)c1ccc(N)cc1	60.3	1.52	0.96	39.6	
CC(C)(C)N1CCN(CCOC(=O)c2ccc(N)cc2)CC1	78.4	1.86	1.15	42.2	
CN1CCN(CCOC(=O)c2ccc(N)cc2)CC1	100	< 1.5	0.43	84.2	
CC1CN(CCOC(=O)c2ccc(N)cc2)CC(C)O1 (stereo unspecified)	159	2.68	1.24	59.3	Activity [5]: Non-Toxic; Activity [6]: Non-Toxic; Activity [7]: Active; selectivity ratio [8]: 2.73; inhibition [9]: > 80%; Activity [10]: Non-Toxic; Activity [11]: Non-Toxic; Activity [12]: Non-Toxic; Activity [13]: Non-Toxic; ED50 [14]: 66 mg/kg; Activity [15]: Non-Toxic; IC50 [16]: > 30 µM; Stability [17]: Stable; Activity [18]: Non-Toxic; Activity [19]: Non-Toxic; LD50 [20]: 180 mg/kg; Activity [21]: Non-Toxic; Stability [22]: Unstable; Activity [23]: Toxic; Activity [24]: Non-Toxic
CC1CN(CCOC(=O)c2ccc(N)cc2)CCO1 (stereo unspecified)	188	2.08	1	90.2	Activity [7]: Active; Activity [25]: Toxic
Nc1ccc(C(=O)OCCN2CCSCC2)cc1	126	2.33	1.58	54	solubility [26]: Insoluble
CCN(CC)CCOC(=O)c1ccc(N)cc1 [PROCAINE]	70.5	1.65	1.07	42.8	Activity [5]: Non-Toxic; Activity [6]: Non-Toxic; Activity [27]: Toxic; selectivity ratio [8]: 1.56; Activity [28]: Toxic; Activity [10]: Non-Toxic; Activity [11]: Non-Toxic; Activity [12]: Non-Toxic; Activity [13]: Non-Toxic; Activity [29]: Toxic; ED50 [14]: 50.4 mg/kg; Activity [15]: Non-Toxic; Activity [18]: Non-Toxic; Activity [30]: Toxic; Activity [31]: Toxic; Activity [19]: Non-Toxic; LD50 [20]: 78.8 mg/kg; Activity [21]: Non-Toxic; Activity [23]: Toxic; Activity [24]: Non-Toxic
CCN1CCN(CCOC(=O)c2ccc(N)cc2)CC1	64.3	< 1.5	0.81	56	
CC1COCCN1CCOC(=O)c1ccc(N)cc1 (stereo unspecified)	253	2.13	0.62	119	
CCN(CCO)CCOC(=O)c1ccc(N)cc1	115	< 1.5	0.47	90.2	
CC1COCC(C)N1CCOC(=O)c1ccc(N)cc1 (stereo unspecified)	399	2.49	0.42	160	
CC(C)N1CCN(CCOC(=O)c2ccc(N)cc2)CC1	58.6	< 1.5	0.92	52.8	
Nc1ccc(C(=O)OCCN2CCS(=O)(=O)CC2)cc1	115	2.53	1.63	45.5	solubility [26]: Insoluble
Nc1ccc(C(=O)OCCN(CCO)CCO)cc1	160	< 1.5	-0.19	128	
CC1CC(C)CN(CCOC(=O)c2ccc(N)cc2)C1 (stereo unspecified)	68.5	2.02	3.2	33.9	Activity [32]: Toxic; Activity [33]: Toxic; Activity [34]: Toxic; Activity [35]: Toxic
Nc1ccc(C(=O)OCCN2CC[S+]([O-])CC2)cc1	110	2.57	1.55	42.7	solubility [26]: Insoluble
Nc1ccc(C(=O)OCCN2CCOCC2)cc1	365	2.46	0.54	148	
